From PubChem BioAssay (NCI)
Values joined by “and” are separate entries in the source; they are usually repeats but may differ in a detail not shown here. Equal entries are not always repeated.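 1) Cells in 96-well plates. 2) Compound, 48 h, 5 concentrations. 3) Linear interpolation between surrounding doses. 4) Unreached endpoint = highest concentration. GI50 = concentration required for 50% inhibition of growth. TGI marks complete inhibition of growth.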

Experiments:
Assay in all cases: NCI-60 cell line screen, 48 h
NCI/ADR-RES ovarian = test system: NCI/ADR-RES ovarian
BT-549 breast = test system: BT-549 breast
MDA-MB-231 breast = test system: MDA-MB-231 breast
M19-MEL melanoma = test system: M19-MEL melanoma
LXFL 529 NSCLC = test system: LXFL 529 NSCLC
MCF7 breast = test system: MCF7 breast
MDA-N = test system: MDA-N
HOP-18 NSCLC = test system: HOP-18 NSCLC

| SMILES | GI50 (NCI/ADR-RES ovarian) | TGI (NCI/ADR-RES ovarian) | GI50 (BT-549 breast) | TGI (BT-549 breast) | GI50 (MDA-MB-231 breast) | TGI (MDA-MB-231 breast) | TGI (M19-MEL melanoma) | TGI (LXFL 529 NSCLC) | GI50 (MCF7 breast) | TGI (MCF7 breast) | TGI (MDA-N) | TGI (HOP-18 NSCLC) |
| --- | --- | --- | --- | --- | --- | --- | --- | --- | --- | --- | --- | --- |
| COc1cnc2c(c1)C(=O)c1c-2n(CCCN2CCCC2)c(=O)c2cc(Cl)ccc12 | 0.222 µM | 8.86 µM | 3.8 µM | 12.9 µM | 6.15 µM | 15.2 µM | – | – | – | – | – | – |
| CC(C)=CC(=O)CC(=O)C(=O)Nc1ccc(Cl)c(Cl)c1 | – | – | – | – | – | – | > 100 µM | > 100 µM | – | – | – | – |
| CCCCCc1c(C)[nH]c(/C=C2\N=C(c3ccc[nH]3)C=C2Oc2ccc(Cl)cc2)c1C | 0.377 µM and 0.387 µM | 18.8 µM | 0.222 µM and 0.352 µM | 19.7 µM | 0.0269 µM and < 0.01 µM | 0.0798 µM and 0.157 µM | – | – | 0.0578 µM and 0.0238 µM | 2.15 µM and 3.57 µM | – | – |
| CC(C)OC(=O)c1ccc2[nH]c(O)c(C(=Nc3ccc(N(C)C(=O)CN4CCN(C)CC4)cc3)c3ccccc3)c2c1 | – | – | 1.28 µM | 2.68 µM | 0.16 µM | 0.715 µM | – | – | 0.485 µM | 2.07 µM | – | – |
| COc1ccc2c(c1)C(=O)c1c-2n(CCCN2CCOCC2)c(=O)c2ccccc12 | 3.8 µM | > 93.1 µM | 2.55 µM | 13.6 µM | 15.4 µM | > 100 µM | – | – | 0.291 µM | 13 µM | – | – |
| O=C(O)c1c[nH]cc1C(=O)O | – | – | – | – | – | – | > 100 µM | > 100 µM | – | – | – | – |
| CN(C)c1ccc(C(N)=O)cn1 | – | > 100 µM | – | > 100 µM | – | > 100 µM | – | – | – | > 100 µM | > 100 µM | – |
| N#Cc1ccccc1NC(=O)c1ccccc1 | – | – | – | – | – | – | > 100 µM | – | – | – | – | > 100 µM |
| COc1ccc2c(c1)nc(N)c1c3cccnc3cn21 | 0.0382 µM | 50.2 µM | 0.447 µM | 28.9 µM | 0.556 µM | 22.4 µM | – | – | 0.302 µM | 17.5 µM | – | – |
| C=C(C)[C@@H]1CC[C@@]2(C)[C@H]1[C@H]1CCC3[C@@]4(C)CC[C@H](O)C(C)(C)[C@@H]4CC[C@@]3(C)[C@]1(C)C[C@@H]2O (stereo partly drawn) | – | > 100 µM | – | > 100 µM | – | > 100 µM | – | – | – | > 100 µM | > 100 µM | – |
| COc1ccc(-c2ccc(/C=N/n3c(COc4ccc(Cl)cc4)n[nH]c3=S)o2)c([N+](=O)[O-])c1 | 15.8 µM | 50 µM | 13.6 µM | 50 µM | 14.2 µM | 48.5 µM | – | – | 16.9 µM | 56.9 µM | – | – |
| C/C1=C\CC[C@@](C)(O)[C@@H]2CC3[C@@H](OC(=O)C34CC4)[C@@H](O2)[C@H](C)CCC1 (stereo partly drawn) | 17 µM | 34 µM | – | – | 19.6 µM | 43.5 µM | – | – | 0.238 µM | 25.3 µM | – | – |
| CC(C)[C@@H](COC(C)(C)C)N=CN1CCc2c([nH]c3ccccc23)C1 | – | – | – | – | – | – | – | > 100 µM | – | – | – | – |
| CS(=O)(=O)Nc1cc(-c2ccc3ncnc(Nc4ccc5c(cnn5Cc5ccc(F)cc5)c4)c3c2)cnc1Cl | 17 µM | > 100 µM | 0.957 µM | 6.47 µM | – | – | – | – | 0.404 µM | 10.2 µM | – | – |
| CCOC(=O)N1CCN(S(=O)(=O)c2oc(-c3ccc(Cl)cc3)nc2C#N)CC1 | 12.2 µM | 47.6 µM | 2.22 µM | 5.6 µM | 1.94 µM | 4.24 µM | – | – | 1.75 µM | 4.21 µM | – | – |
| CCOc1ccc(NC(=O)CC2SC(N)=NC2=O)cc1 (stereo not drawn) | – | – | – | – | – | – | > 100 µM | > 100 µM | – | – | – | – |
